We go through one compound from patent US7101915B1, “P-terphenyl compounds” (Shionogi & Co., Ltd., priority 1996, dated 2006).

By IC50 is commonly meant the midpoint of a concentration-inhibition curve.

Assay [1] has as its system BGG-specific IgE in a serum. Briefly: Suppressive effect on the antibody production against bovine γ globulin (BGG), sandwich ELISA. The class given is in vivo, BALB/c mice. The note with it: 50 mg/kg p.o. every day, serum after 21 days. The protocol:
Experiment 3 Suppressive Effect on the Antibody Production Against Bovine γ Globulin (BGG)
On an immunizing day and 7 days after, 50 μg of BGG was subcutaneously inoculated to backs of BALB/c mice (male, 6-8 weeks old) for inducing an immune reaction. After the compound of the present invention was dissolved or suspended in N, N-dimethylacetoamide, the mixture was diluted with miglyol 812 neutral oil. A proper volume of the compound was orally administered (p.o.) to mice every day from the next day of the immunizing. A two hundredth weight to body weight of miglyol was administered to mice in a control group. After 21 days, blood was drawn from each mouse and a serum was separated. BGG-specific IgE in a serum was measured by the sandwich ELISA method using a BGG-coating plate. The suppressive rate of IgE production was calculated from the dilution rate of the serum which has the same absorption intensity as that of the control group for judging the effect of the compound of the present invention.
On the technique in general: ELISA stands for enzyme-linked immunosorbent assay.

Assay [2] has as its system IgE production of mouse spleen lymphocytes (lipopolysaccharide, IL-4). Briefly: Suppressive effect on antibody production of mouse spleen lymphocytes: IgE. The class given is cell-based, BALB/c (nu/nu) mice. Conditions: Lymphocyte, 240 h, LPS + IL-4, 10 days. The protocol:
(§1) Experiment 6 Suppressive Effect on Antibody Production of Mouse Spleen Lymphocytes 1. Experimental Method 1) Animals
(§2) BALB/c (nu/nu) mice were bought from Japan SLC, Inc. (Shizuoka) and 7 weeks old-male mice were used.
(§3) RPMI medium (Nissui Pharmaceutical Co., Ltd.) containing 10% fetal bovine serum (HyClone Lab.) inactivated at 56° C. for 30 minutes, penicillin (100 units/ml) and streptomycin (100 μg/ml) (GIBCO) was used for experiments.
(§4) Each of the compounds was dissolved in dimethylsulfoxide (Nakaraitesk) at […] and diluted with the medium to adjust a final concentration to 0.1 μg/ml −10 μg/ml.
4) Mouse Spleen Lymphocytes
A spleen of mouse was taken out and put in a cultivating schale which was filled with Hanks' solution. The spleen was crushed and the cells were pushed out from the organ and filtered through a metal mesh (200 mesh). After the collected cell suspension was washed by centrifugation with sterile Hanks' solution (Nissui Pharmaceutical Co., Ltd.), sterile distilled water was added. […]
(§5) In 96-well cultivating plate (Sumitomo Bakelite Company Limited) mouse spleen lymphocytes were inoculated 2×10^5 cells per well. […] After the cultivation for 10 days, the amount of the antibody in a supernatant was quantified by ELISA method.
6) Quantification of the IgE Antibody
A commercial mouse IgE EIA kit (Yamasa Shoyu Co., Ltd.) was used for the quantification of the IgE. […]

The test system of assay [3] is IgG2a production of mouse spleen lymphocytes. As to the kind of experiment: Suppressive effect on antibody production of mouse spleen lymphocytes: IgG2a. The class given is cell-based, BALB/c (nu/nu) mice. Conditions: Lymphocyte, 240 h, LPS + IL-4, 10 days. How it is done: as §1, §2, §3, §4
(§6) 4) Mouse Spleen Lymphocytes […]
as §5
(§7) 7) Quantification of the IgG1, IgG2a and IgM Antibodies
(§8) In 96-well plate 50 μl of 10 μg/ml Goat Anti-Mouse Ig (IgM+G+A, H+ L) (Southern Biotechnology, Birmingham) was added and the plate was coated at 4° C. overnight. […] After washing three times with PBST, 100 μl of culture supernatant which was diluted with PBS or 100 μl of an antibody standard solution (Mouse IgG1 standard, Mouse IgG2a standard, Mouse IgM standard, BETHYL Laboratories) of a pre-determined concentration was added and incubated for 1 hour. […]

Assay [4] deals with IgM production of mouse spleen lymphocytes. Briefly: Suppressive effect on antibody production of mouse spleen lymphocytes: IgM. Format: cell-based, BALB/c (nu/nu) mice. The note with it: Lymphocyte, 240 h, LPS + IL-4, 10 days. How it is done: as §1, §2, §3, §4, §6, §5, §7, §8
For assay [5], the system named is inflammatory cells in BAL solution of OVA-sensitized mice. As to the kind of experiment: Suppressive effect on bronchial inflammatory cell infiltration by inhalation of antigen (BAL cell counts). The note with it: 40 mg/kg orally for 9 days, BAL 48 hours after challenge, FIG. 4. The class given is in vivo, BALB/c mice. The protocol:
Experiment 7 Suppressive Effect on Bronchial Inflammatory Cell Infiltration by Inhalation of Antigen • 1. Experimental Method • 1) Animals
BALB/c mice bought from Japan SLC, Inc. (Shizuoka) (female, 8-11 weeks old) were used for experiments.
2) Sensitizing and Challenge of Antigen
For immunizing, 0.2 ml of a suspension of 2 μg of ovalbumin (OVA; Grade V, SIGMA) and 2 mg of aluminium hydroxide gel in physiological saline was intraperitoneally injected. After 2 weeks, 0.2 ml of a solution of 2 μg of OVA in physiological saline was intraperitoneally injected for a booster. […]
After calculation of the total cell number by coloring of a part of BAL solution with Türk solution, cells in BAL solution were put on a slide glass with cytospin (SHANDON) for May-Grünwald-Giemsa (MERCK) staining. Under a microscope, 500 cells were classified to a macrophage, an eosinophil, a neutrophil and a lymphocyte and a proportion of each type of the cells was calculated. The number of each type of the cells was calculated by a multiplication of its proportion and the total cell number.

Structures are written as SMILES. Bounds are passed on as bounds.

Take `Cc1cc(-c2ccc(OCC=C(Cl)Cl)c(F)c2)c(C)cc1-c1ccc(O)cc1` [Compound I-963]: the “Suppressive rate of antigen-specific IgE” value in assay [1] is more than 99%. Further, the 50% inhibitory concentration (IC50) in assay [2] amounted to 0.00026 ng/mL; in assay [3] it was 3.6 µg/mL; in assay [4], 3.5 µg/mL. The “increasing number of eosinophils by the challenge of antigen” value in assay [5] is given as “significantly suppresses”. Further, in assay [5], the “increasing number of neutrophils by the challenge of antigen” value was “significantly suppresses”.
